Values of other authors as cited in patent US20070166389A1, “Stabilized lyophilized blood platelets” (priority 2005, published 2007).

How the values were obtained:
sickle erythrocytes = conditions: glyceraldehyde treatment in vitro
[1] = dosages effective for increasing bile salt secretion

Row | SMILES | deleterious effects of the treatment (sickle erythrocytes) | life span in vivo of sickle erythrocytes (sickle erythrocytes) | abnormal symptoms in liver or kidney [1]
1 | O=CC(O)CO (stereo not drawn) [glyceraldehyde] | failed to show any deleterious effects | prolongation of the life span of sickle erythrocytes | 
2 | COC(=O)C1=CO[C@@H](O)[C@@H]2C(CO)=CC[C@H]12 [genipin] |  |  | do not cause any abnormal symptoms in the liver or kidney
